Each structure is given as a SMILES string. Read-outs that look alike come from different tables or passages of the source.

Data set [1] has as its target T1, protein tyrosine phosphatase 1B (PTP1B) (Homo sapiens, UniProt P18031).
T1 sequence (P18031 1-435): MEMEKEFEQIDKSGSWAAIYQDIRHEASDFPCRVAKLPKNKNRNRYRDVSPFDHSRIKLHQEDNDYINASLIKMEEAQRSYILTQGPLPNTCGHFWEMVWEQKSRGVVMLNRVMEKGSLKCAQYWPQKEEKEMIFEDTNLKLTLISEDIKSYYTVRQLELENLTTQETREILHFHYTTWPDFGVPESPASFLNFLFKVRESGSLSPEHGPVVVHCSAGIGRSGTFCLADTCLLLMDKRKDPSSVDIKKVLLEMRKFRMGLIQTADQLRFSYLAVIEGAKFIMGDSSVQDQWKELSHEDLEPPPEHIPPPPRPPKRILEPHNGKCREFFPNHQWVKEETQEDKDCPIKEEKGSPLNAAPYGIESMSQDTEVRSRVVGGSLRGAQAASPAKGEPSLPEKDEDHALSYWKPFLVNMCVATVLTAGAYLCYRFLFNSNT
The data set can be described thus: biochemical. The following applies: read-out: IC50, target inhibitory activity against PTP1B. The protocol:
(§1) Evaluation of the inhibitory effects on acetylcholinesterase was performed by the spectrophotometric method developed by Ellman with slight modifications as reported, and on c-Met and PTP1B by using the enzyme-linked immunosorbent assay (ELISA) methodology.

Data set [2] deals with Plasmodium falciparum 3D7. The experiment in a line: in vitro antimalarial activity, SYBR-Green assay. The format is cell-based. The following applies: 10 nM dihydroartemisinine as positive control, read-out: IC50, antimalarial activity against P. falciparum 3D7. The protocol: The in vitro antimalarial activity was assessed against P. falciparum (3D7) using an SYBR-Green assay with 10 nM dihydroartemisinine as positive control. Twelve diluted samples (5 µM, 10 µM, 20 µM, 40 µM, 80 µM, 100 µM, 200 µM, 400 µM, 800 µM, 1 mM, 2 mM, and 4 mM) were added to the test wells to obtain the 50% inhibiting concentration.

The nature of the next data set: cytotoxicity, MTT method. The format is cell-based. To be noted: human. How it is done: The cytotoxicities against Jurkat, MDA-MB-231, U2OS, HeLa, HCT-116, and A549 cell lines were assayed by MTT method with Adriamycin as a positive control. All the cell lines were purchased from Shanghai Institute of Cell Biology (Shanghai, China).
A further data set concerns influenza A virus (H1N1). The experiment in a line: antiviral activity, CPE inhibition assay. It is filed as cell-based. How it is done: (§2) The antiviral activities against influenza A virus (H1N1) and (PR8) were evaluated by the CPE inhibition assay as the literature reported. […]
Another data set concerns influenza A virus (PR8). The experiment in a line: antiviral activity, CPE inhibition assay. It is filed as cell-based. To be noted: read-out: IC50 against influenza A virus PR8. How it is done:
as §2

In a further data set the target is acetylcholinesterase (Homo sapiens, UniProt P22303). The data set can be described thus: acetylcholinesterase inhibition, Ellman spectrophotometric method. The following applies: at 50 μg/mL; read-out: inhibition rate against acetylcholinesterase. The format is biochemical. How it is done: as §1
On the technique in general: Ellman's reagent forms a yellow product with free thiols.

Sequence of acetylcholinesterase (P22303 32-614, species assumed): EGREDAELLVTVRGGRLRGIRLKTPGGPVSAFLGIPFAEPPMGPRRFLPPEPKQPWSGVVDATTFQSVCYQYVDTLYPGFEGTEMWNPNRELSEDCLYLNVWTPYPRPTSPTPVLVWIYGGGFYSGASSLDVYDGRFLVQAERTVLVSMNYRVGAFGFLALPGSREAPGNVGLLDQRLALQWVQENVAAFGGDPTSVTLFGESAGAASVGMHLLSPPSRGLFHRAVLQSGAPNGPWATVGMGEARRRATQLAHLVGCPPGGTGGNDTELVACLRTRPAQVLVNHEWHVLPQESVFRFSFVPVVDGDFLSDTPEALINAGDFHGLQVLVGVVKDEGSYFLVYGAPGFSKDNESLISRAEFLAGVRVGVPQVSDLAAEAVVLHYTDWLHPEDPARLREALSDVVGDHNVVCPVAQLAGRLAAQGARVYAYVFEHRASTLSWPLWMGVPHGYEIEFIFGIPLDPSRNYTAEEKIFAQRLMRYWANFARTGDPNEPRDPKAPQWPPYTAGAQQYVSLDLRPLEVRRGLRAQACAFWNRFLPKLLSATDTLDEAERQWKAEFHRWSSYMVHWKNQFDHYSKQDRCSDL

`C=C(C)C1CC=C(C(=O)OC)CC(=O)CC2(C)CC(=O)C(CC(=O)C1)O2` (stereo not shown) [Compound 5, sinulin D]: the IC50 in data set [1] stood at 47.5 µM.
For `C=C1CCC2(O)CC3(CCC(C(C)C)C3C1)OO2` (stereo not shown) [Compound 1, Sinuketal], the IC50 in data set [2] was found to be 80 µM; in “cytotoxicity, MTT method” (Jurkat cells, Jurkat cell line, read-out: IC50, cytotoxic activity toward Jurkat), 24.9 µM; in “cytotoxicity, MTT method” (MDA-MB-231 cells, MDA-MB-231 cell line, read-out: IC50, cytotoxic activity toward MDA-MB-231), 32.3 µM; in the data set “cytotoxicity, MTT method” (U2OS cells, U2OS cell line, read-out: IC50, cytotoxic activity toward U2OS), 41.7 µM; with influenza A virus (H1N1) (H1N1, read-out: IC50 against influenza A virus H1N1), 172 µM; in the data set with influenza A virus (PR8) it was 443 µM. The inhibition at 50 µg/mL at acetylcholinesterase came out at 20.2%.
Consider `CC(C)[C@@H]1CC[C@@](C)(O)[C@@H]2CCC(CO)=C[C@H]21` [Compound 11, 15-hydroxy-α-cadinol], for which the IC50 in data set [1] stood at 22.1 µM.
For the molecule `NC(=O)c1ncn([C@@H]2O[C@H](CO)[C@@H](O)[C@H]2O)n1` [ribavirin, reference compound], the IC50 in the data set with influenza A virus (H1N1) (positive control, strain (H1N1 or PR8) not specified, read-out: IC50 of positive control, influenza A viruses) turned out to be 103 µM.
`C=C(C)[C@@H]1C/C=C2\C(=O)O[C@@H](C[C@]3(C)CC(=O)[C@H](CC(=O)C1)O3)[C@@H]2O` [Compound 20, 5-episinuleptolide]: the IC50 in “cytotoxicity, MTT method” (HCT-116 cells, HCT-116 cell line, read-out: IC50, cytotoxicity against HCT-116) was 33.3 µM; in the data set “cytotoxicity, MTT method” (HeLa cells, HeLa cell line, read-out: IC50, cytotoxicity against HeLa) it was 11.6 µM.
As for `C=C(C)C1CCC(C)=CCCC(C)=CCCC2(C)OC2C1` [Compound 15, (1R,3S,4S,7E,11E)-3,4-epoxycembra-7,11,15-triene], in data set [1], the IC50 amounted to 12.5 µM.

For orientation: IC50 means the concentration that inhibits the measured activity by half. Usually inhibition stands for the relative decrease from the control value, in per cent.

For the origin of these results see publication PMC5923414, “Terpenoids from the Soft Coral Sinularia sp. Collected in Yongxing Island” (Marine Drugs, 2018).
